In PubChem BioAssay (NCI) one finds TGI and GI50 data, which are given here for 15 molecules.

Test systems include 786-0 renal; COLO 205 colon; EKVX NSCLC; HCT-116 colon; HL-60(TB) leukemia; IGROV1 ovarian; NCI-H226 lung; OVCAR-8 ovarian; PC-3 prostate; SNB-75 CNS.
Holding throughout (assay): NCI-60 cell line screen, 48 h

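48-hour exposure; five concentrations; linearly interpolated endpoints. GI50 = concentration required for 50% inhibition of growth. TGI marks complete inhibition of growth.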

Consider `Cc1cc(S(=O)(=O)Nc2nc3ccccc3nc2-c2ccc(Cl)cc2)c(S)cc1Cl`, for which the TGI worked out at 43.5 µM with 786-0 renal; 30.2 µM with COLO 205 colon; 29.1 µM in the experiment with EKVX NSCLC; 40.5 µM in the experiment on HCT-116 colon; 44.1 µM in the experiment with HL-60(TB) leukemia; 24.9 µM in the experiment on IGROV1 ovarian. Also, the TGI in the experiment on NCI-H226 lung was determined as 47.9 µM; in the experiment on OVCAR-8 ovarian it was 51.6 µM; in the experiment on PC-3 prostate, 34.3 µM.
With `C/C=C1\CN(C(=O)OC(C)(C)C)C1C(=O)OC(C)(C)C` (configuration not stated), the TGI in the experiment with 786-0 renal, in the experiment on COLO 205 colon, in the experiment on EKVX NSCLC, in the experiment on HCT-116 colon, in the experiment with HL-60(TB) leukemia and in the experiment on IGROV1 ovarian was over 100 µM each time. Besides, the TGI with OVCAR-8 ovarian and with PC-3 prostate was over 100 µM each time.
Turning to `COc1c2c(c3ccccc3c1O)C1C=CC2C1` (configuration not stated), the TGI in the experiment on COLO 205 colon stood at 30.1 µM; with EKVX NSCLC, 33 µM; in the experiment with HCT-116 colon, 14.6 µM; in the experiment on IGROV1 ovarian, 39 µM; in the experiment with OVCAR-8 ovarian, 28.7 µM.
As to `CC1CC/C(=C\c2ccc(F)cc2)C(=O)/C1=C/c1ccc(F)cc1` (configuration not stated), the TGI with 786-0 renal is 8.42 µM; in the experiment with COLO 205 colon, 18.5 µM; in the experiment on EKVX NSCLC, 17.9 µM; in the experiment on HCT-116 colon, 5.4 µM; in the experiment on IGROV1 ovarian, 11.1 µM; in the experiment with NCI-H226 lung it was 24.1 µM. In addition, the TGI with OVCAR-8 ovarian is 9.14 µM; in the experiment with PC-3 prostate, 28.3 µM; in the experiment on SNB-75 CNS, 11.7 µM.
As for `Cc1ccc(C2=C(C#N)C(N)OC3=C2COc2ccccc23)cc1` (configuration not stated), the TGI in the experiment with COLO 205 colon was over 100 µM; in the experiment on EKVX NSCLC, 37.4 µM; with HCT-116 colon it was over 100 µM; with HL-60(TB) leukemia, over 100 µM; in the experiment on IGROV1 ovarian it was over 100 µM; in the experiment with NCI-H226 lung, over 100 µM. Further, the TGI with PC-3 prostate came out at 57.2 µM.
For `Cc1n[nH]c(=O)n1/N=C\c1ccccc1`, the TGI in the experiment with 786-0 renal, with COLO 205 colon, with EKVX NSCLC, in the experiment with HCT-116 colon, in the experiment with HL-60(TB) leukemia and with IGROV1 ovarian was over 100 µM throughout. For the same molecule, the TGI in the experiment on NCI-H226 lung, in the experiment on OVCAR-8 ovarian and in the experiment with PC-3 prostate was over 100 µM in each case.
As for `Clc1ccc(-c2cn3c(nc4ccccc43)c(/C=C/c3ccco3)n2)cc1`, the TGI was over 100 µM in the experiment on 786-0 renal; over 100 µM in the experiment with COLO 205 colon; over 100 µM with HCT-116 colon; 41.7 µM with HL-60(TB) leukemia; over 100 µM with IGROV1 ovarian; over 100 µM in the experiment with NCI-H226 lung. In the experiment with SNB-75 CNS, this molecule came in with a TGI of 83.5 µM.
Turning to `COc1c(-c2nc3nc(N4CCN(C)CC4)ccc3[nH]2)cc(OC)c2c1nc(COC(C)=O)n2C`, the TGI with 786-0 renal, with COLO 205 colon, with EKVX NSCLC, with HCT-116 colon, with IGROV1 ovarian and in the experiment on NCI-H226 lung was over 100 µM throughout. Besides, the TGI with OVCAR-8 ovarian and in the experiment with PC-3 prostate was over 100 µM in each case.
Consider `O=C(/C=C/c1cccc(Oc2ccccc2)c1)NCc1ccc(C(=O)NCCc2ccccc2)cc1`, for which the TGI in the experiment with 786-0 renal, in the experiment with COLO 205 colon, with EKVX NSCLC, in the experiment with HCT-116 colon, in the experiment with IGROV1 ovarian and in the experiment with NCI-H226 lung was over 100 µM each time. In addition, the TGI is over 100 µM with OVCAR-8 ovarian, over 100 µM in the experiment on PC-3 prostate and 92.6 µM with SNB-75 CNS.
Take `COC(=O)c1c(O)ccc2[nH]c3c(O)c4ccccc4cc3c12`: the TGI came out at 95.6 µM in the experiment on 786-0 renal; 37.3 µM with COLO 205 colon; 39.6 µM in the experiment with EKVX NSCLC; 47 µM with HCT-116 colon; 37.5 µM in the experiment with HL-60(TB) leukemia; 43.5 µM in the experiment on IGROV1 ovarian. Besides, the TGI with NCI-H226 lung is over 100 µM; in the experiment with OVCAR-8 ovarian, 48.9 µM; in the experiment with PC-3 prostate, over 100 µM.
As for `O=C(c1ccccc1)C1S(=O)(=O)OCCOS1(=O)=O`, the TGI with 786-0 renal, with COLO 205 colon, in the experiment on EKVX NSCLC, with HCT-116 colon, in the experiment with HL-60(TB) leukemia and in the experiment with IGROV1 ovarian was over 100 µM in each case. Moreover, the TGI in the experiment with OVCAR-8 ovarian and in the experiment on SNB-75 CNS was over 100 µM throughout.
Regarding `CCN(CC)CCN1C(=O)c2c(c3c4ccccc4[nH]c3c3ccc4ccccc4c23)C1=O`, the GI50 in the experiment with COLO 205 colon is 2.56 µM; in the experiment with EKVX NSCLC it was 1.69 µM; in the experiment with HL-60(TB) leukemia it was 2.04 µM; in the experiment on IGROV1 ovarian, 1.43 µM; in the experiment with OVCAR-8 ovarian, 1.78 µM; with PC-3 prostate it was 1.44 µM. Further, the GI50 in the experiment with SNB-75 CNS is 1.17 µM. Moreover, the TGI was 10.8 µM in the experiment on COLO 205 colon; 3.32 µM in the experiment on EKVX NSCLC; 4.35 µM in the experiment with HL-60(TB) leukemia; 2.83 µM with IGROV1 ovarian; 4.74 µM in the experiment with OVCAR-8 ovarian; 3.25 µM with PC-3 prostate. Also, the TGI in the experiment with SNB-75 CNS is 2.4 µM.
On to `O=C1/C=C(/c2ccc(O)cc2)[C@@H](O)Cc2ccc(O)cc2O1`, for which the TGI was over 100 µM in the experiment on 786-0 renal; over 100 µM in the experiment with COLO 205 colon; over 100 µM in the experiment on EKVX NSCLC; over 100 µM with HCT-116 colon; over 100 µM in the experiment with IGROV1 ovarian; 89.6 µM in the experiment on NCI-H226 lung. The molecule further came in with a TGI in the experiment with OVCAR-8 ovarian of over 100 µM.
As for `Cc1sc2c(c1C)/C(=N\O)c1cccn1-2`, the TGI is 52.3 µM with 786-0 renal; over 100 µM in the experiment on COLO 205 colon; over 100 µM in the experiment with EKVX NSCLC; over 100 µM with HCT-116 colon; over 100 µM in the experiment on IGROV1 ovarian; over 100 µM in the experiment on NCI-H226 lung. The TGI is over 100 µM in the experiment on OVCAR-8 ovarian, over 100 µM in the experiment on PC-3 prostate and 41.1 µM with SNB-75 CNS.
Turning to `CCOC(=O)C(Cc1c[nH]c2cc([N+](=O)[O-])ccc12)NS(=O)(=O)c1ccc2ccccc2c1` (configuration not stated), the TGI in the experiment with 786-0 renal came to 76.1 µM; with COLO 205 colon, 32.1 µM; in the experiment on EKVX NSCLC it was 78.1 µM; with HCT-116 colon it was 30.9 µM; in the experiment with HL-60(TB) leukemia it was 48.5 µM; with IGROV1 ovarian it was 48 µM. The TGI in the experiment with NCI-H226 lung worked out at 48.2 µM; in the experiment on OVCAR-8 ovarian it was 55.7 µM; in the experiment with SNB-75 CNS it was 50.4 µM.
